Experimental data from patent publication US8946298B2, “Plant disease controlling composition and method for controlling plant disease” (Sumitomo Chemical Company, Limited, priority 2010, dated 2015).

System: gray mold fungus (Botrytis cinerea)
Test: cucumber leaf disk test, preventive value against gray mold
Type: in vivo
Settings: 15° C., four days
Protocol: True leaf of cucumber is punched out with cork borer to 13 mm in diameter to prepare a leaf disk. In 24 well microwell plate that is dispensed with 1 ml 0.8% water agar, the leaf disk is placed such that the upper side of the leaf is in an upward direction. Thereto is added 20 micro liter a testing solution prepared by mixing a dimethyl sulfoxide solution of the present compound (racemate) and a dimethyl sulfoxide solution of iminoctadine trialbesilate to a predetermined concentration to treat the leaf disk.
After confirming that the testing medical solution is dried, conidium of gray mold fungus (Botrytis cinerea) is suspended into potato dextrose broth (DIFCO) in a density of about 10^5 conidium/mL and is then subjected to a spray inoculation. After leaving to stand the leaf disk in a growth chamber set up at 15° C. for four days, an onset area on the leaf is measured and then calculated an onset area rate (hereinafter, referred to as an onset area rate of treated group).
The same operation is carried out with 20 micro liter water instead of 20 micro liter a testing medicine solution to calculate an onset area rate (hereinafter, referred to an onset area rate of non-treated group).
A preventive value is calculated from the above onset area rate of treated group and the onset area rate of non-treated group by the following equation: Preventive value (%)=100×(A−B)/A
A: an onset area rate of treated group
B: an onset area rate of non-treated group
The same operations as described in Test Example 1 are carried out with iminoctadine triacetate instead of iminoctadine trialbesilate, so as to calculate a preventive value.
Also for comparison, the same operations as described in Test Example 1 are carried out with the exception that the testing medicine solution is substituted with a predetermined concentration of each dimethyl sulfoxide solution of the present compound (racemate) or iminoctadine triacetate, so as to calculate respective preventive values.
For comparison, the same operations as described in Test Example 1 are carried out with the exception that the testing medicine solution is substituted with a predetermined concentration of a dimethyl sulfoxide solution of iminoctadine triacetate, so as to calculate a preventive value.

CC(=O)O.CC(=O)O.CC(=O)O.NC(N)=NCCCCCCCCNCCCCCCCCN=C(N)N [iminoctadine triacetate]
preventive value (%) (Table 2, iminoctadine triacetate alone 0.5 ppm): 20% | preventive value (%) (Table 2, iminoctadine triacetate alone 5.0 ppm): 53% | preventive value (%) (Table 3 (Reference Example), iminoctadine triacetate alone 0.5 ppm): 20% | preventive value (%) (Table 3 (Reference Example), iminoctadine triacetate alone 5.0 ppm): 56%
